For assay [1], the system named is patients with CFS. To be noted: six patients with CFS; cited from earlier work.
Assay [2] deals with CFS patients. As to conditions: 99 CFS patients; cited from earlier work.
Assay [3] has as its system CFS symptoms in patients with chronic fatigue syndrome. The experiment in a line: Pilot treatment of three CFS patients with Rituximab infusions and weekly oral Methotrexate. The class given is in vivo, human. As to conditions: pilot patient 1, weekly oral low-dose 7.5 to 12.5 mg per week; for clinical response on CFS symptoms: used for 22 weeks. An excerpt:
The symptom score of CFS symptoms which is in a range of 0 to 10 wherein 0 means no symptoms while 10 refers to very severe symptoms of CFS.
Methotrexat (Mtx) is a therapeutic agent with known (but not well understood) immunomodulatory properties.

Assay [4] has as its system B-cells in rheumatoid arthritis patients. To be noted: given orally on a weekly schedule for rheumatoid arthritis; cited from earlier work.
Assay [5] relates to patients with long-standing fatigue. To be noted: 12 patients treated; cited from earlier work.

Take etanercept: the clinical outcome in assay [1] is recorded as “clinical benefit”.
As for `CC[C@H]1OC(=O)[C@H](C)[C@@H](O[C@H]2C[C@@](C)(OC)[C@@H](O)[C@H](C)O2)[C@H](C)[C@@H](O[C@@H]2O[C@H](C)C[C@H](N(C)C)[C@H]2O)[C@](C)(O)C[C@@H](C)CN(C)[C@H](C)[C@@H](O)[C@]1(C)O` [azithromycin], the “CFS patients with improvement” value in assay [2] is 59%.
Take `CN(Cc1cnc2nc(N)nc(N)c2n1)c1ccc(C(=O)N[C@@H](CCC(=O)O)C(=O)O)cc1` [Methotrexate]: in assay [3], the “start of CFS symptom recovery after onset of weekly treatment” value came out at 10 weeks; the “clinical response on CFS symptoms” value is “significant and moderate clinical response on CFS symptoms”. In addition, in assay [3] (listed as Mtx), the “clinical response on CFS symptoms” value is “gradual and moderate CFS symptom recovery”; the “start of CFS symptom recovery after onset of weekly treatment” value was 12 weeks. Moreover, in assay [4], the B-cell depletion result is on record as “moderate B-cell depletion”.
For the molecule `CC(C)[C@H](N)C(=O)OCC(CO)OCn1cnc2c(=O)nc(N)[nH]c21` (some centres unmarked) [valganciclovir], in assay [5], the “patients with improvement of the symptoms” value is given as “nine”.

Values taken from US7914785B2, “B-cell depleting agents, like anti-CD20 antibodies or fragments thereof for the treatment of chronic fatigue syndrome” (Bergen Teknologieverforing AS, priority 2009, dated 2011).
